The results in this text go back to patent US11279733B2, “Peptide antibiotics” (priority 2017, dated 2022).

The subject of series [1] is K. pneumoniae GN_102 PmxR. As to conditions: GN 102 PmxR. A digest of the protocol:
(§1)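 Mid-log cultures grown in Mueller Hinton broth at 37° C were tested by 2-fold broth microdilution at 5×10^5 CFU/mL final. Compounds were dissolved in water and tested over a final range of 32 to 0.015 μg/mL.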

The subject of series [2] is K. pneumoniae ATCC BAA-2146, NDM-1 pos. To be noted: ATCC BAA-2146. A digest of the protocol:
as §1

The test system of a further series is A. baumannii GN_093 PmxR. As to conditions: GN 093 PmxR. A digest of the protocol: as §1
The test system of series [3] is K. pneumoniae GN_106, PmxR. As to conditions: GN 106, PmxR. An outline of the steps:
as §1

A further series has as its system P. aeruginosa ATCC 27853. To be noted: ATCC 27853. An outline of the steps: as §1
Another series relates to E. coli ATCC 25922. As to conditions: ATCC 25922. A digest of the protocol:
as §1

The test system of a further series is A. baumannii ATCC 19606. To be noted: ATCC 19606. An outline of the steps:
as §1

Another series has as its system K. pneumoniae ATCC 13883. To be noted: ATCC 13883. An outline of the steps: as §1
For series [4], the system named is P. aeruginosa GN_105, PmxR. To be noted: GN 105, PmxR. An outline of the steps: as §1
Series [5] concerns P. aeruginosa GN_043, PmxR. As to conditions: polymyxin-resistant. A digest of the protocol: as §1
The subject of series [6] is K. pneumoniae ATCC 700603, MDR. As to conditions: ATCC 700603. An outline of the steps:
as §1

The test system of series [7] is S. aureus ATCC 25923, MSSA. As to conditions: ATCC 25923. An outline of the steps: as §1
The next series is described as follows: in vitro. To be noted: human. A digest of the protocol:
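4000 cells/well, 24 h attach (37 °C, 5% CO2); compound 24 h; 5 μM resazurin 2 h, 37 °C; fluorescence ex/em 560/590. CC50 by curve fit.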

Structures are written as SMILES. Converted amounts (≈) assume the structure as drawn. Positions of bridges follow the written chain, without caps; N, C: chain ends. Non-standard residues stand in square brackets, D forms with d. Residues, ends and D or L forms follow the SMILES beside them. *: point of attachment. Ala(benzothiazol-2-yl) = N[C@@H](Cc1nc2ccccc2s1)C(=O)O; Decanoyl(3R-OH) = CCCCCCC[C@@H](O)CC(=O)*; 2Nal = N[C@@H](Cc1ccc2ccccc2c1)C(=O)O; dDab = NCC[C@@H](N)C(=O)O; Dab = NCC[C@H](N)C(=O)O

For the molecule `CCCCCCC[C@@H](O)CC(=O)N[C@H](CCN)C(=O)N[C@H]1CCNC(=O)[C@H](Cc2ccc3ccccc3c2)NC(=O)[C@H](CCN)NC(=O)[C@H](CCN)NC(=O)[C@H](CC(C)C)NC(=O)[C@@H](Cc2ccccc2)NC(=O)[C@H](CCN)NC1=O` [compound 8908, 3(R)OH-nC9CO-D-Dab-cyc[L-Dab-L-Dab-D-Phe-L-Leu-L-Dab-L-Dab-L-Ala(2Naphthyl)]] ({Decanoyl(3R-OH)}-[dDab][Dab][Dab][dF]L[Dab][Dab][2Nal]; lactam 2-C), the “MIC K. pneumoniae GN_102 PmxR” value in series [1] was 4 µg/mL (≈ 3.54 µM). In addition, the “MIC K. pneumoniae ATCC BAA-2146, NDM-1 pos” value in series [2] was 4 µg/mL (≈ 3.54 µM). For the same molecule, the “MIC A. baumannii GN_093 PmxR” value in the series with A. baumannii GN_093 PmxR worked out at 4 µg/mL (≈ 3.54 µM). The “MIC K. pneumoniae GN_106, PmxR” value in series [3] was found to be 4 µg/mL (≈ 3.54 µM). The “MIC P. aeruginosa ATCC 27853” value with P. aeruginosa ATCC 27853 stood at 4 µg/mL (≈ 3.54 µM). The “MIC E. coli ATCC 25922” value in the series with E. coli ATCC 25922 worked out at 2 µg/mL (≈ 1.77 µM). Moreover, the “MIC A. baumannii ATCC 19606” value with A. baumannii ATCC 19606 was 4 µg/mL (≈ 3.54 µM). Besides, in the series with K. pneumoniae ATCC 13883, the “MIC K. pneumoniae ATCC 13883” value was determined as 2 µg/mL (≈ 1.77 µM). Also, the “MIC P. aeruginosa GN_105, PmxR” value in series [4] was found to be 2 µg/mL (≈ 1.77 µM). In addition, the “MIC P. aeruginosa GN_043, PmxR” value in [5] stood at 4 µg/mL (≈ 3.54 µM). Further, the “MIC K. pneumoniae ATCC 700603, MDR” value in [6] turned out to be 4 µg/mL (≈ 3.54 µM). Further, the “MIC S. aureus ATCC 25923, MSSA” value in series [7] was 4 µg/mL (≈ 3.54 µM). Further, the CC50 at 24 h in “in vitro” stood at 39 µM.
With `CCCCCCC[C@@H](O)CC(=O)N[C@H](CCN)C(=O)N[C@H]1CCNC(=O)[C@H](Cc2nc3ccccc3s2)NC(=O)[C@H](CCN)NC(=O)[C@H](CCN)NC(=O)[C@H](CC(C)C)NC(=O)[C@@H](Cc2ccccc2)NC(=O)[C@H](CCN)NC1=O` [compound 8910, 3(R)OH-nC9CO-D-Dab-cyc[L-Dab-L-Dab-D-Phe-L-Leu-L-Dab-L-Dab-L-Ala(Bth)]] ({Decanoyl(3R-OH)}-[dDab][Dab][Dab][dF]L[Dab][Dab][Ala(benzothiazol-2-yl)]; lactam 2-C), the “MIC K. pneumoniae GN_102 PmxR” value in series [1] is 8 µg/mL (≈ 7.05 µM). The “MIC K. pneumoniae ATCC BAA-2146, NDM-1 pos” value in series [2] came to 4 µg/mL (≈ 3.52 µM). The “MIC A. baumannii GN_093 PmxR” value against A. baumannii GN_093 PmxR turned out to be 4 µg/mL (≈ 3.52 µM). Further, in series [3], the “MIC K. pneumoniae GN_106, PmxR” value turned out to be 4 µg/mL (≈ 3.52 µM). Further, the “MIC P. aeruginosa ATCC 27853” value in the series with P. aeruginosa ATCC 27853 is 2 µg/mL (≈ 1.76 µM). Further, the “MIC E. coli ATCC 25922” value in the series on E. coli ATCC 25922 amounted to 2 µg/mL (≈ 1.76 µM). Further, the “MIC A. baumannii ATCC 19606” value in the series on A. baumannii ATCC 19606 was determined as 8 µg/mL (≈ 7.05 µM). In the series on K. pneumoniae ATCC 13883, the “MIC K. pneumoniae ATCC 13883” value was 4 µg/mL (≈ 3.52 µM). In [4], the “MIC P. aeruginosa GN_105, PmxR” value is 2 µg/mL (≈ 1.76 µM). Further, the “MIC P. aeruginosa GN_043, PmxR” value in series [5] came to 4 µg/mL (≈ 3.52 µM). For the same molecule, the “MIC K. pneumoniae ATCC 700603, MDR” value in [6] was 4 µg/mL (≈ 3.52 µM). In series [7], the “MIC S. aureus ATCC 25923, MSSA” value amounted to 4 µg/mL (≈ 3.52 µM). Further, in “in vitro”, the CC50 at 24 h was found to be 47 µM.
Regarding `CCCCCCC[C@@H](O)CC(=O)N[C@H](CCN)C(=O)N[C@H]1CCNC(=O)[C@H](Cc2c[nH]cn2)NC(=O)[C@H](CCN)NC(=O)[C@H](CCN)NC(=O)[C@H](CC(C)C)NC(=O)[C@@H](Cc2ccccc2)NC(=O)[C@H](CCN)NC1=O` [compound 8911, 3(R)OH-nC9CO-D-Dab-cyc[L-Dab-L-Dab-D-Phe-L-Leu-L-Dab-L-Dab-L-His]] ({Decanoyl(3R-OH)}-[dDab][Dab][Dab][dF]L[Dab][Dab]H; lactam 2-C), in series [1], the “MIC K. pneumoniae GN_102 PmxR” value is greater than 32 µg/mL. In series [2], the “MIC K. pneumoniae ATCC BAA-2146, NDM-1 pos” value came out at 16 µg/mL (≈ 15 µM). Moreover, the “MIC A. baumannii GN_093 PmxR” value against A. baumannii GN_093 PmxR was greater than 32 µg/mL. Moreover, the “MIC K. pneumoniae GN_106, PmxR” value in series [3] is 32 µg/mL (≈ 30 µM). The “MIC P. aeruginosa ATCC 27853” value with P. aeruginosa ATCC 27853 is 2 µg/mL (≈ 1.87 µM). Moreover, the “MIC E. coli ATCC 25922” value against E. coli ATCC 25922 turned out to be 8 µg/mL (≈ 7.49 µM). Further, the “MIC A. baumannii ATCC 19606” value in the series with A. baumannii ATCC 19606 was greater than 32 µg/mL. In the series with K. pneumoniae ATCC 13883, the “MIC K. pneumoniae ATCC 13883” value is greater than 32 µg/mL. In series [4], the “MIC P. aeruginosa GN_105, PmxR” value came out at 16 µg/mL (≈ 15 µM). Also, the “MIC P. aeruginosa GN_043, PmxR” value in series [5] worked out at 2 µg/mL (≈ 1.87 µM). For the same molecule, in [6], the “MIC K. pneumoniae ATCC 700603, MDR” value came out at 8 µg/mL (≈ 7.49 µM). For the same molecule, in series [7], the “MIC S. aureus ATCC 25923, MSSA” value was greater than 32 µg/mL. In addition, the CC50 at 24 h in “in vitro” was greater than 300 µM.
